Data from publication PMC9022726 (International journal of biological macromolecules, 2021).

Target: tau K18 (Homo sapiens, UniProt P10636)
Assay: intrinsic fisetin fluorescence titration
Type: binding

tau K18, sequence (P10636 561-689): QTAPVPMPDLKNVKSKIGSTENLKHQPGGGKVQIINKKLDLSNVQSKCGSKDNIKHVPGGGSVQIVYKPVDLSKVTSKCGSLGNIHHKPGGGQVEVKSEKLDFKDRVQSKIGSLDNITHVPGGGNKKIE

Question: How did the Kd turn out when `O=c1c(O)c(-c2ccc(O)c(O)c2)oc2cc(O)ccc12` [fisetin] was run?
Answer: 22.6 ± 1.81 µM
